Data from the kinase profiling compilation of Christmann-Franck et al. (2016).

What was measured:
Assay in all cases: radiometric filter-binding kinase assay, Kinase HotSpot
Settings in all cases: compound 0.5 µM; ATP 10 µM
[1] = target: BRSK1 (human) (UniProt Q8TDC3)
[2] = target: CAMK2B (human) (UniProt Q13554)
[3] = target: CAMK4 (human) (UniProt Q16566)
[4] = target: CDK3 CCNE1 (human) (UniProt Q00526+P24864)
[5] = target: CDK6 CCND3 (human) (UniProt P30281+Q00534)
[6] = target: CSF1R (human) (UniProt P07333)
[7] = target: EGFR (human) (UniProt P00533)
[8] = target: EPHA5 (human) (UniProt P54756)
[9] = target: FES (human) (UniProt P07332)
[10] = target: GSK3A (human) (UniProt P49840)
[11] = target: IKBKB (human) (UniProt O14920)
[12] = target: ITK (human) (UniProt Q08881)
[13] = target: JAK1 JH1 catalytic (human) (UniProt P23458)
[14] = target: MAP2K2 (human) (UniProt P36507)
[15] = target: MAP3K10 (human) (UniProt Q02779)
[16] = target: MAP4K4 (human) (UniProt O95819)
[17] = target: MAP4K5 (human) (UniProt Q9Y4K4)
[18] = target: MAPK10 (human) (UniProt P53779)
[19] = target: MAPKAPK2 (human) (UniProt P49137)
[20] = target: MATK (human) (UniProt P42679)
[21] = target: MINK1 (human) (UniProt Q8N4C8)
[22] = target: MST1R (human) (UniProt Q04912)
[23] = target: MUSK (human) (UniProt O15146)
[24] = target: NEK1 (human) (UniProt Q96PY6)
[25] = target: OXSR1 (human) (UniProt O95747)
[26] = target: PASK (human) (UniProt Q96RG2)
[27] = target: PIM2 (human) (UniProt Q9P1W9)
[28] = target: PIM3 (human) (UniProt Q86V86)
[29] = target: PRKCA (human) (UniProt P17252)
[30] = target: PRKCI (human) (UniProt P41743)
[31] = target: PRKG2 (human) (UniProt Q13237)
[32] = target: RET (human) (UniProt P07949)
[33] = target: RIPK2 (human) (UniProt O43353)
[34] = target: RPS6KA1 KD1 KD2 (human) (UniProt Q15418)
[35] = target: RPS6KA2 KD1 KD2 (human) (UniProt Q15349)
[36] = target: SGK3 (human) (UniProt Q96BR1)
[37] = target: SIK2 (human) (UniProt Q9H0K1)
[38] = target: STK3 (human) (UniProt Q13188)
[39] = target: TEK (human) (UniProt Q02763)
[40] = target: TSSK1B (human) (UniProt Q9BXA7)
[41] = target: TYRO3 (human) (UniProt Q06418)
[42] = target: ULK2 (human) (UniProt Q8IYT8)

Chain of MATK (human) (P42679 whole entry, looked up): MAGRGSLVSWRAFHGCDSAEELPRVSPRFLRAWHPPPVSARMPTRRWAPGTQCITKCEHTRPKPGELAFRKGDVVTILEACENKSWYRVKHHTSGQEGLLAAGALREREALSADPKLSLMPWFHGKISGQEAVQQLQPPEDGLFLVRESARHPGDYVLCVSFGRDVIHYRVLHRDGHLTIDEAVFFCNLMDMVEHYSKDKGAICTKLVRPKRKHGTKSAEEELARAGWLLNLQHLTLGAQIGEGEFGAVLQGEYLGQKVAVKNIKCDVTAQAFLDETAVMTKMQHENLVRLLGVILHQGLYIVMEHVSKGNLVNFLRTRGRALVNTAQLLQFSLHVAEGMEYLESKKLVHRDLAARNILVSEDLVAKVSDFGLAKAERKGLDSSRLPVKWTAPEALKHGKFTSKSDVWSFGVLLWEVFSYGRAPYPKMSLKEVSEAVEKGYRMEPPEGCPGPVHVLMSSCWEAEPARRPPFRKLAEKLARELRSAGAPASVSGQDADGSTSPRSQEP
Chain of TEK (human) (Q02763 whole entry, looked up): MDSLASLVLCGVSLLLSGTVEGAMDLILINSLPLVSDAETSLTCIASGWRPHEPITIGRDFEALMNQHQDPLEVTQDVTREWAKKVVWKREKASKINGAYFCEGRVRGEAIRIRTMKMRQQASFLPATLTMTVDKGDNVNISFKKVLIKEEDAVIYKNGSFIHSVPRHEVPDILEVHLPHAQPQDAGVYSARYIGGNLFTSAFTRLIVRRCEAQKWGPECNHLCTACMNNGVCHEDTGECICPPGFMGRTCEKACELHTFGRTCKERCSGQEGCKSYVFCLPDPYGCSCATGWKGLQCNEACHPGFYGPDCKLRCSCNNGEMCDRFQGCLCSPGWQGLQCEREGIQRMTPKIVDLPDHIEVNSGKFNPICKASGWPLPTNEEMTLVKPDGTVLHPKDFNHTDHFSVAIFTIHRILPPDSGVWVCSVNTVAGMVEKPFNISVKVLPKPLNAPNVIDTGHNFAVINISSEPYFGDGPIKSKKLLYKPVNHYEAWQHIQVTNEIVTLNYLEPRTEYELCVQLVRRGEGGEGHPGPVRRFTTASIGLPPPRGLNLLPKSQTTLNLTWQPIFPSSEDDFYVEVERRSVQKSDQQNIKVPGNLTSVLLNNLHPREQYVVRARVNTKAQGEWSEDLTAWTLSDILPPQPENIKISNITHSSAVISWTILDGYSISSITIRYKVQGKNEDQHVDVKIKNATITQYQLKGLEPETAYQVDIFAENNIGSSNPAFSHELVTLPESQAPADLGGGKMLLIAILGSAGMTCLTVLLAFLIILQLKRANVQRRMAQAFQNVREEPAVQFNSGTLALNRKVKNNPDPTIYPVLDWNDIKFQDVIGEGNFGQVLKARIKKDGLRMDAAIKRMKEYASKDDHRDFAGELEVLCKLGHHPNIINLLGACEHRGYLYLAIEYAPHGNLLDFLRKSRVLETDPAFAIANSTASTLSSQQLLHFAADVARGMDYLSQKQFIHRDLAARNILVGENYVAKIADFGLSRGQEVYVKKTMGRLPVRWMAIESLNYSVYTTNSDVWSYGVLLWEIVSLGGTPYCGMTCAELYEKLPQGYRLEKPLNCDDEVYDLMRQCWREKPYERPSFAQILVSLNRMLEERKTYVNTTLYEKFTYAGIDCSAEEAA
Chain of OXSR1 (human) (O95747 whole entry, looked up): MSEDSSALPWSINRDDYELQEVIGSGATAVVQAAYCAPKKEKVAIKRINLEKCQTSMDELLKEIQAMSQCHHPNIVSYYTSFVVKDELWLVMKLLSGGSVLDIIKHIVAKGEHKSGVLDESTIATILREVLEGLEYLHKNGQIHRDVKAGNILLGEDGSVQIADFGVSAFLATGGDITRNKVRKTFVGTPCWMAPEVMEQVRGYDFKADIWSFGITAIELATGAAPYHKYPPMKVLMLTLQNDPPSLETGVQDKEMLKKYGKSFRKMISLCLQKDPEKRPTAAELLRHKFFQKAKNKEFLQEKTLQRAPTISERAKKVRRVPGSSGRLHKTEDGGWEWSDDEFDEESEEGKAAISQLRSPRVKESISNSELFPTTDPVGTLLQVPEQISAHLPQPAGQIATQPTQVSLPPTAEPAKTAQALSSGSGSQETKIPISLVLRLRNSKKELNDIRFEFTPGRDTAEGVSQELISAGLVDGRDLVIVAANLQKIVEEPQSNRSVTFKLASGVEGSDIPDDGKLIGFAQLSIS
Chain of PRKG2 (human) (Q13237 whole entry, looked up): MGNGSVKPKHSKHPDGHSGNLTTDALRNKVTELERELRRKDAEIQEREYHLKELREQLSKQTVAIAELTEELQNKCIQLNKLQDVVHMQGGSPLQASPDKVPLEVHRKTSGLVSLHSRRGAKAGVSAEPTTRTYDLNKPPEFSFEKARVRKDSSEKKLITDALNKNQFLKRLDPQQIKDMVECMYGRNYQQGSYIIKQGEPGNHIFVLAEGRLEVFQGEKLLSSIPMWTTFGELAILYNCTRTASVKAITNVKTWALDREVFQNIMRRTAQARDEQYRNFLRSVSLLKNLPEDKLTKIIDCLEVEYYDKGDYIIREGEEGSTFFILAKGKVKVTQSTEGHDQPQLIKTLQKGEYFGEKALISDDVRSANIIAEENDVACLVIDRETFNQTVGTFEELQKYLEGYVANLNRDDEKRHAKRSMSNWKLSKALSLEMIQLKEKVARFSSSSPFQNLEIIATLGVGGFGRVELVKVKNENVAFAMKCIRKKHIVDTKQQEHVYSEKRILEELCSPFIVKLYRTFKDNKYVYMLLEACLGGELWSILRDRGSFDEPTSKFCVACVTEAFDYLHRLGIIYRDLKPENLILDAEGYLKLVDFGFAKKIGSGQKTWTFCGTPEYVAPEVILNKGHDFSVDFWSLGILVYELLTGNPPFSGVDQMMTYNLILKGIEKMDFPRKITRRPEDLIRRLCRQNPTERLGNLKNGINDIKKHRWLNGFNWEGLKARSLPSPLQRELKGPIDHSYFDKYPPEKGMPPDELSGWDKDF
Chain of JAK1 JH1 catalytic (human) (P23458 whole entry, looked up): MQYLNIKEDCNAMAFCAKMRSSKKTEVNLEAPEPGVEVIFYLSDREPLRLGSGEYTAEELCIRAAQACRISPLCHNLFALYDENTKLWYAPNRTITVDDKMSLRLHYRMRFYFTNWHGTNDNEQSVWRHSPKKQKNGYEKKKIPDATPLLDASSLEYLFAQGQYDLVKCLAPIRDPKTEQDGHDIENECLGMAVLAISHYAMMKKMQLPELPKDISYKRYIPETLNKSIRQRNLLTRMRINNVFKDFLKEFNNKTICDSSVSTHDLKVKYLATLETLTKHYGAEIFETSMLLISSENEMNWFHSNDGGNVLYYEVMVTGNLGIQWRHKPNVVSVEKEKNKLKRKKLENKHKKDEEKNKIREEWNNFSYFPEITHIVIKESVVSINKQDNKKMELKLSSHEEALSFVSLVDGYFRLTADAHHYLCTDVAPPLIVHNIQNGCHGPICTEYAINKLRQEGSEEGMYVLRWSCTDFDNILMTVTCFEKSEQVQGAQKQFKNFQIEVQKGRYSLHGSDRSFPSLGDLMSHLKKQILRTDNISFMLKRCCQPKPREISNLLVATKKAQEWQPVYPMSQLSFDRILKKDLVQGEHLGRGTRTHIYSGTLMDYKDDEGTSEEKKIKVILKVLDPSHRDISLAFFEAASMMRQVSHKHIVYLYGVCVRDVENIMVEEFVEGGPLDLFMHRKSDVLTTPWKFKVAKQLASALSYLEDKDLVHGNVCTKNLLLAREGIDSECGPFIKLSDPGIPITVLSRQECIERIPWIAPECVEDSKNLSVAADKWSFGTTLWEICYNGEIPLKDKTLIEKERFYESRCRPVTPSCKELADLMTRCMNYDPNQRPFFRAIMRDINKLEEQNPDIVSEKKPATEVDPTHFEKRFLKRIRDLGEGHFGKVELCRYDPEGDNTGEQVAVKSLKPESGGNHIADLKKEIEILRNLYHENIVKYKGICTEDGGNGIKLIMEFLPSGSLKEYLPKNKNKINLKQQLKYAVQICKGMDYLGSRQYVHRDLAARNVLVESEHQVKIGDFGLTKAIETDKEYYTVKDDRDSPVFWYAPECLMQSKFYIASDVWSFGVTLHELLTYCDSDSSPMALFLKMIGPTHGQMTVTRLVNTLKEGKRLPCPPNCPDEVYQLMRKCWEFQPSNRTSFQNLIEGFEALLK
Chain of CAMK2B (human) (Q13554 whole entry, looked up): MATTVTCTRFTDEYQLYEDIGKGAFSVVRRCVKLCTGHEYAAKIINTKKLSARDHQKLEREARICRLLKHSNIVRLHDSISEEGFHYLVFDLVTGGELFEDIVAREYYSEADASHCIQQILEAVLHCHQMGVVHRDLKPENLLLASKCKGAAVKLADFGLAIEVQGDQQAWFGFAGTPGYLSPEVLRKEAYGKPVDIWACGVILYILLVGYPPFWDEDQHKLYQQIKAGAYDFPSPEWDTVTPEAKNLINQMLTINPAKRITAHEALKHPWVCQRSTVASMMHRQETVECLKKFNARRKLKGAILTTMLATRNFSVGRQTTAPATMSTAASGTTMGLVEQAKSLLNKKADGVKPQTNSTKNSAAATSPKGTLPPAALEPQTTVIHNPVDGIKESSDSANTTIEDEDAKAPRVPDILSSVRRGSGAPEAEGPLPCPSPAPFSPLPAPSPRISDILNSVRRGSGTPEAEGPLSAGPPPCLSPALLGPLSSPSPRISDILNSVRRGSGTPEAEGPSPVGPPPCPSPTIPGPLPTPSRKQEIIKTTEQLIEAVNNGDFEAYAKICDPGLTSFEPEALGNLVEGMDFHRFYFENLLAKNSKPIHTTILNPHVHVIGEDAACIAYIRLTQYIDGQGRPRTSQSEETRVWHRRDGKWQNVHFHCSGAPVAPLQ
Chain of PIM2 (human) (Q9P1W9 whole entry, looked up): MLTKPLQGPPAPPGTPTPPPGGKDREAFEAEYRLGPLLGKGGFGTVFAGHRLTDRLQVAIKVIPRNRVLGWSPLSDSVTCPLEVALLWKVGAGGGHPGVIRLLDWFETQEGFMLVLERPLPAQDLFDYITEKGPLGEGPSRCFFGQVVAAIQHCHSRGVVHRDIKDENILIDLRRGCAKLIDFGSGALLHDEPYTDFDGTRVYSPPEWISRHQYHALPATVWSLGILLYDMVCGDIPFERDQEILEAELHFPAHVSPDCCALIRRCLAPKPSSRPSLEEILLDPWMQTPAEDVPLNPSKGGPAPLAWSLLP

SMILES: O=C1NC(=O)c2c1c1c3ccccc3n3c1c1c2c2ccccc2n1C1CCC3O1
- residual activity [1]: 14.8%
- residual activity [2]: 9.85%
- residual activity [3]: 98.7%
- residual activity [4]: 71.5%
- residual activity [5]: 19.9%
- residual activity [6]: 29.3%
- residual activity [7]: 78.3%
- residual activity [8]: 78.7%
- residual activity [9]: 42.1%
- residual activity [10]: 2.19%
- residual activity [11]: 97.8%
- residual activity [12]: 8.29%
- residual activity [13]: 22.2%
- residual activity [14]: 87.9%
- residual activity [15]: 2.66%
- residual activity [16]: 0.995%
- residual activity [17]: 2.69%
- residual activity [18]: 138%
- residual activity [19]: 99.2%
- residual activity [20]: 91.7%
- residual activity [21]: 0.901%
- residual activity [22]: 87.7%
- residual activity [23]: 25.8%
- residual activity [24]: 50.9%
- residual activity [25]: 92.4%
- residual activity [26]: 43.3%
- residual activity [27]: 1.86%
- residual activity [28]: 0.238%
- residual activity [29]: 13.9%
- residual activity [30]: 86.4%
- residual activity [31]: 6.01%
- residual activity [32]: 3.21%
- residual activity [33]: 79.7%
- residual activity [34]: 1.58%
- residual activity [35]: 1.33%
- residual activity [36]: 71.7%
- residual activity [37]: 33.9%
- residual activity [38]: 3.22%
- residual activity [39]: 94.1%
- residual activity [40]: 17.7%
- residual activity [41]: 55.3%
- residual activity [42]: 89.1%

SMILES: CC(=O)c1ccc(N2CCOCC2)cc1O
- residual activity [1]: 97.6%
- residual activity [2]: 105%
- residual activity [3]: 93%
- residual activity [4]: 102%
- residual activity [5]: 97.4%
- residual activity [6]: 100%
- residual activity [7]: 97.4%
- residual activity [8]: 109%
- residual activity [9]: 100%
- residual activity [10]: 101%
- residual activity [11]: 103%
- residual activity [12]: 97%
- residual activity [13]: 104%
- residual activity [14]: 99.8%
- residual activity [15]: 104%
- residual activity [16]: 96.9%
- residual activity [17]: 102%
- residual activity [18]: 78.4%
- residual activity [19]: 103%
- residual activity [20]: 92.1%
- residual activity [21]: 94.3%
- residual activity [22]: 104%
- residual activity [23]: 93.9%
- residual activity [24]: 114%
- residual activity [25]: 115%
- residual activity [26]: 95%
- residual activity [27]: 117%
- residual activity [28]: 115%
- residual activity [29]: 73.4%
- residual activity [30]: 96.3%
- residual activity [31]: 107%
- residual activity [32]: 103%
- residual activity [33]: 103%
- residual activity [34]: 92.4%
- residual activity [35]: 98.6%
- residual activity [36]: 105%
- residual activity [37]: 87%
- residual activity [38]: 98.9%
- residual activity [39]: 101%
- residual activity [40]: 107%
- residual activity [41]: 89.1%
- residual activity [42]: 114%

SMILES: c1ccc(-c2n[nH]cc2-c2ccnc3ccccc23)nc1
- residual activity [1]: 99%
- residual activity [2]: 97.2%
- residual activity [3]: 97.5%
- residual activity [4]: 94.2%
- residual activity [5]: 98.2%
- residual activity [6]: 95.5%
- residual activity [7]: 81.8%
- residual activity [8]: 94.9%
- residual activity [9]: 111%
- residual activity [10]: 95.1%
- residual activity [11]: 105%
- residual activity [12]: 102%
- residual activity [13]: 96.7%
- residual activity [14]: 106%
- residual activity [15]: 104%
- residual activity [16]: 48.3%
- residual activity [17]: 87.4%
- residual activity [18]: 92.9%
- residual activity [19]: 100%
- residual activity [20]: 87.9%
- residual activity [21]: 84.1%
- residual activity [22]: 99.9%
- residual activity [23]: 93.4%
- residual activity [25]: 85.3%
- residual activity [26]: 77.1%
- residual activity [27]: 115%
- residual activity [28]: 90.6%
- residual activity [29]: 98.5%
- residual activity [30]: 99%
- residual activity [31]: 89.2%
- residual activity [32]: 93.8%
- residual activity [33]: 64.7%
- residual activity [34]: 88.1%
- residual activity [35]: 96.3%
- residual activity [36]: 97.4%
- residual activity [37]: 94.8%
- residual activity [38]: 102%
- residual activity [39]: 98.8%
- residual activity [40]: 104%
- residual activity [41]: 124%
- residual activity [42]: 95.6%
